# According to patent US20060293307A1, “Oxazolidinone derivatives as antimicrobials” (priority 2002, published 2006):
# Where two headings read alike, the source gives them in different places.
# Experiments:
# Experiment in all cases: MIC, agar incorporation method
# [1] = test system: S. pneumoniae AB4; type: cell-based, Streptococcus pneumoniae
# [2] = test system: S. pneumoniae AB 21; type: cell-based, Streptococcus pneumoniae
# [3] = test system: E. faecalis SP 346 (VRE); type: cell-based
# [4] = test system: (MRSA) 562; type: cell-based, Staphylococcus aureus
# [5] = test system: S. pyogenes 19615; type: cell-based, Streptococcus pyogenes
# [6] = test system: S. pneumoniae 1251; type: cell-based, Streptococcus pneumoniae
# [7] = test system: S. aureus SG 511; type: cell-based, Staphylococcus aureus
# [8] = test system: S. pneumoniae AB 23; type: cell-based, Streptococcus pneumoniae
# [9] = test system: S pneumoniae 1294.; type: cell-based, Streptococcus pneumoniae
# [10] = test system: S. aureus (MRSA) 15187; type: cell-based, Staphylococcus aureus
# [11] = test system: S. aureus ATCC 25923; type: cell-based, Staphylococcus aureus
# [12] = test system: S. aureus (MRSA) 21299; type: cell-based, Staphylococcus aureus
# [13] = test system: S. epidermidis (MRSE) 23760; type: cell-based, Staphylococcus epidermidis
# [14] = test system: S. aureus ATCC29213; type: cell-based, Staphylococcus aureus
# [15] = test system: P. aeruginosa ATCC 27853; type: cell-based
# [16] = test system: S. pneumoniae AB-2; type: cell-based, Streptococcus pneumoniae
# [17] = test system: S. pneumoniae CS1221; type: cell-based, Streptococcus pneumoniae
# [18] = test system: S. pneumoniae 217; type: cell-based, Streptococcus pneumoniae
# [19] = test system: S. pneumoniae 1275; type: cell-based, Streptococcus pneumoniae
# [20] = test system: Salmonella 205; type: cell-based; details: S. No. 26, Salmonella 205
# Protocol: The compounds of the invention display antibacterial activity when tested by the agar incorporation method. The following minimum inhibitory concentrations (μg/ml) were obtained for representative compounds of the invention which are given below in the following tables.
# Briefly, the compounds were dissolved in DMSO and doubling dilution of the compounds were incorporated into Meer Hilton agar before solidification. Inoculum was prepared by suspending 4 to 5 colonies into 5 ml of normal saline solution and adjusting the turbidity to 0.5 Macfarland turbidity standard tables (1.5×10^8 CFU/ml), after appropriate dilutions, 10^4 CFU/spot was transfered into the surface of dried plate and incubated for 18 hours (24 hours for MRSN studies). The concentration showing no growth of the inoculated culture was recorded as the MIC. Appropriate ATCC standard strains were simultaneously tested and result recorded only when the MIC's against standard antibiotics were within the acceptable range.
# [21] = test system: S. pneumoniae AB 17; type: cell-based, Streptococcus pneumoniae
# [22] = test system: S. haemo ATCC 29970; type: cell-based
# [23] = test system: E. faecalis 29212; type: cell-based
# [24] = test system: S. pneumoniae AB 16; type: cell-based, Streptococcus pneumoniae
# [25] = test system: S. epidermidis ATCC 12228; type: cell-based, Staphylococcus epidermidis
# [26] = test system: S. pyogenes 20361; type: cell-based, Streptococcus pyogenes
# [27] = test system: S. pneumoniae AB 22; type: cell-based, Streptococcus pneumoniae
# [28] = test system: S. aureus (MRSA) ST450; type: cell-based, Staphylococcus aureus
# [29] = test system: Serratia marcescens 12999; type: cell-based
# [30] = test system: S. aureus (MRSA 33) Cipro R; type: cell-based, Staphylococcus aureus
# [31] = test system: S. pneumoniae AB 29; type: cell-based, Streptococcus pneumoniae
# [32] = S. No. 20, E. faecalis SP 346 (VRE)
# [33] = S. No. 4, S. aureus (MRSA) 15187
# [34] = S. No. 5, S. aureus (MRSA) 21299
# [35] = S. No. 11, S. epidermidis (MRSE) 23760
# [36] = S. No. 28, P. aeruginosa ATCC 27853
# [37] = S. No. 34, S. pneumoniae CS1221
# [38] = S. No. 10, S. epidermidis ATCC 12228
# [39] = S. No. 6, S. aureus (MRSA) ST450
# [40] = S. No. 29, Serratia marcescens 12999
# [41] = S. No. 7, S. aureus (MRSA 33) Cipro R
# [42] = Streptococcus pneumoniae, 1294.
# [43] = Staphylococcus aureus, ATCC25923
# [44] = Staphylococcus epidermidis, MRSE
# [45] = Staphylococcus aureus, ATCC29213
# [46] = Pseudomonas aeruginosa, ATCC27853
# [47] = Streptococcus pneumoniae, CS1221
# [48] = Staphylococcus epidermidis, ATCC12228
compound,measurement,setting,value
"CC(=O)NC[C@H]1CN(c2ccc(N3CCN(c4ccc([N+](=O)[O-])s4)CC3)cc2)C(=O)O1 [Compound No. 6, (S)—N-[[3-[4-[N-1-(5-nitro-2-thienyl)piperazinyl]-phenyl]-2-oxo-5-oxazolidinyl]-methyl]-acetamide]",MIC,"[1]; S. No. 33, S. pneumoniae AB4",0.25 µg/mL
same,MIC,"[2]; S. No. 41, S. pneumoniae AB 21",0.5 µg/mL
same,MIC,[3]; [32],1 µg/mL
same,MIC,"[4]; S. No. 8, (MRSA) 562",1 µg/mL
same,MIC,"[5]; S. No. 51, S. pyogenes 19615",0.5 µg/mL
same,MIC,"[6]; S. No. 54, S. pneumoniae 1251",0.25 µg/mL
same,MIC,"[7]; S. No. 3, S. aureus SG 511",2 µg/mL
same,MIC,"[8]; S. No. 43, S. pneumoniae AB 23",0.5 µg/mL
same,MIC,"[9]; S. No. 55, S pneumoniae 1294.",0.5 µg/mL
same,MIC,[10]; [33],2 µg/mL
same,MIC,"[11]; S. No. 1, organism cell empty",2 µg/mL
same,MIC,[12]; [34],1 µg/mL
same,MIC,[13]; [35],1 µg/mL
same,MIC,"[14]; S. No. 2, S. aureus ATCC29213",2 µg/mL
same,MIC,[15]; [36],>16 µg/mL
same,MIC,"[16]; S. No. 31, S. pneumoniae AB-2",0.25 µg/mL
same,MIC,[17]; [37],0.25 µg/mL
same,MIC,"[18]; S. No. 38, S. pneumoniae 217",0.25 µg/mL
same,MIC,"[19]; S. No. 57, S. pneumoniae 1275",0.25 µg/mL
same,MIC,[20],>16 µg/mL
same,MIC,"[21]; S. No. 40, S. pneumoniae AB 17",0.25 µg/mL
same,MIC,"[22]; S. No. 15, S. haemo ATCC 29970",1 µg/mL
same,MIC,"[23]; S. No. 17, E. faecalis 29212",1 µg/mL
same,MIC,"[24]; S. No. 39, S. pneumoniae AB 16",0.5 µg/mL
same,MIC,[25]; [38],1 µg/mL
same,MIC,"[26]; S. No. 53, S. pyogenes 20361",0.5 µg/mL
same,MIC,"[27]; S. No. 42, S. pneumoniae AB 22",0.25 µg/mL
same,MIC,[28]; [39],2 µg/mL
same,MIC,[29]; [40],>16 µg/mL
same,MIC,[30]; [41],1 µg/mL
same,MIC,"[31]; S. No. 46, S. pneumoniae AB 29",0.5 µg/mL
"CC(=O)NC[C@H]1CN(c2ccc(N3CCN(c4cc(C(OC(C)=O)OC(C)=O)sc4[N+](=O)[O-])CC3)c(F)c2)C(=O)O1 [Compound No. 5, (S)—N-[[3-[3-Fluoro-4-[4-{3-thienyl(2-nitro)-5-acetyloxy}methylacetate]-1-piperazinyl]phenyl]-2-oxo-5-oxazolidinyl]acetamide]",MIC,"[1]; S. No. 33, S. pneumoniae AB4",0.5 µg/mL
same,MIC,"[2]; S. No. 41, S. pneumoniae AB 21",0.5 µg/mL
same,MIC,[3]; [32],2 µg/mL
same,MIC,"[4]; S. No. 8, (MRSA) 562",0.25 µg/mL
same,MIC,"[5]; S. No. 51, S. pyogenes 19615",0.5 µg/mL
same,MIC,"[6]; S. No. 54, S. pneumoniae 1251",0.5 µg/mL
same,MIC,"[7]; S. No. 3, S. aureus SG 511",0.25 µg/mL
same,MIC,"[8]; S. No. 43, S. pneumoniae AB 23",0.5 µg/mL
same,MIC,"[9]; S. No. 55, S pneumoniae 1294.",0.5 µg/mL
same,MIC,[10]; [33],0.25 µg/mL
same,MIC,"[11]; S. No. 1, organism cell empty",0.5 µg/mL
same,MIC,[12]; [34],0.25 µg/mL
same,MIC,[13]; [35],<0.06 µg/mL
same,MIC,"[14]; S. No. 2, S. aureus ATCC29213",0.25 µg/mL
same,MIC,[15]; [36],>8 µg/mL
same,MIC,"[16]; S. No. 31, S. pneumoniae AB-2",0.25 µg/mL
same,MIC,[17]; [37],0.5 µg/mL
same,MIC,"[18]; S. No. 38, S. pneumoniae 217",0.5 µg/mL
same,MIC,"[19]; S. No. 57, S. pneumoniae 1275",0.25 µg/mL
same,MIC,[20],>8 µg/mL
same,MIC,"[21]; S. No. 40, S. pneumoniae AB 17",0.5 µg/mL
same,MIC,"[22]; S. No. 15, S. haemo ATCC 29970",<0.06 µg/mL
same,MIC,"[23]; S. No. 17, E. faecalis 29212",2 µg/mL
same,MIC,"[24]; S. No. 39, S. pneumoniae AB 16",0.5 µg/mL
same,MIC,[25]; [38],<0.06 µg/mL
same,MIC,"[26]; S. No. 53, S. pyogenes 20361",0.5 µg/mL
same,MIC,"[27]; S. No. 42, S. pneumoniae AB 22",0.5 µg/mL
same,MIC,[28]; [39],1 µg/mL
same,MIC,[29]; [40],>8 µg/mL
same,MIC,[30]; [41],0.25 µg/mL
same,MIC,"[31]; S. No. 46, S. pneumoniae AB 29",0.5 µg/mL
"O=C(NC[C@H]1CN(c2ccc(N3CCN(c4ccc([N+](=O)[O-])s4)CC3)c(F)c2)C(=O)O1)C(F)F [Compound No. 8, (S)—N-[[3-[3-Fluoro-4-[4-(5-nitro-2-thienyl)-1-piperazinyl]phenyl]-2-oxo-5-oxazolidinyl]methyl]difluoroacetamide]",MIC,"[1]; Streptococcus pneumoniae, AB4",0.125 µg/mL
same,MIC,"[2]; Streptococcus pneumoniae, AB21",0.25 µg/mL
same,MIC,"[3]; Enterococcus faecalis, VRE",0.25 µg/mL
same,MIC,"[4]; Staphylococcus aureus, MRSA",2 µg/mL
same,MIC,"[5]; Streptococcus pyogenes, 19615",0.25 µg/mL
same,MIC,"[6]; Streptococcus pneumoniae, 1251",0.25 µg/mL
same,MIC,"[7]; Staphylococcus aureus, SG511",0.25 µg/mL
same,MIC,"[8]; Streptococcus pneumoniae, AB23",0.25 µg/mL
same,MIC,[9]; [42],0.25 µg/mL
same,MIC,"[10]; Staphylococcus aureus, MRSA",2 µg/mL
same,MIC,[11]; [43],2 µg/mL
same,MIC,"[12]; Staphylococcus aureus, MRSA",2 µg/mL
same,MIC,[13]; [44],0.25 µg/mL
same,MIC,[14]; [45],2 µg/mL
same,MIC,[15]; [46],> 8 µg/mL
same,MIC,"[16]; Streptococcus pneumoniae, AB2",0.125 µg/mL
same,MIC,[17]; [47],0.125 µg/mL
same,MIC,"[18]; Streptococcus pneumoniae, 217",0.25 µg/mL
same,MIC,"[19]; Streptococcus pneumoniae, 1275",0.06 µg/mL
same,MIC,[20]; read-out: MIC,> 8 µg/mL
same,MIC,"[21]; Streptococcus pneumoniae, AB17",0.25 µg/mL
same,MIC,[22],0.25 µg/mL
same,MIC,"[23]; Enterococcus faecalis, 29212",0.25 µg/mL
same,MIC,"[24]; Streptococcus pneumoniae, AB16",0.25 µg/mL
same,MIC,[25]; [48],0.125 µg/mL
same,MIC,"[26]; Streptococcus pyogenes, 20361",0.25 µg/mL
same,MIC,"[27]; Streptococcus pneumoniae, AB22",0.25 µg/mL
same,MIC,"[28]; Staphylococcus aureus, MRSA",2 µg/mL
same,MIC,"[29]; Serratia marcescens, 12999",> 8 µg/mL
same,MIC,"[30]; Staphylococcus aureus, MRSA",2 µg/mL
same,MIC,"[31]; Streptococcus pneumoniae, AB29",0.25 µg/mL
"CC(=O)NC[C@H]1CN(c2ccc(N3CCOCC3)c(F)c2)C(=O)O1 [Linezolid, reference compound]",MIC,"[1]; Streptococcus pneumoniae, AB4",0.25 µg/mL
same,MIC,"[2]; Streptococcus pneumoniae, AB21",1 µg/mL
same,MIC,"[3]; Enterococcus faecalis, VRE",2 µg/mL
same,MIC,"[4]; Staphylococcus aureus, MRSA",1 µg/mL
same,MIC,"[5]; Streptococcus pyogenes, 19615",1 µg/mL
same,MIC,"[6]; Streptococcus pneumoniae, 1251",1 µg/mL
same,MIC,"[7]; Staphylococcus aureus, SG511",2 µg/mL
same,MIC,"[8]; Streptococcus pneumoniae, AB23",1 µg/mL
same,MIC,[9]; [42],1 µg/mL
same,MIC,"[10]; Staphylococcus aureus, MRSA",2 µg/mL
same,MIC,[11]; [43],2 µg/mL
same,MIC,"[12]; Staphylococcus aureus, MRSA",1 µg/mL
same,MIC,[13]; [44],1 µg/mL
same,MIC,[14]; [45],2 µg/mL
same,MIC,[15]; [46],> 16 µg/mL
same,MIC,"[16]; Streptococcus pneumoniae, AB2",0.25 µg/mL
same,MIC,[17]; [47],0.25 µg/mL
same,MIC,"[18]; Streptococcus pneumoniae, 217",1 µg/mL
same,MIC,"[19]; Streptococcus pneumoniae, 1275",1 µg/mL
same,MIC,[20]; read-out: MIC,> 16 µg/mL
same,MIC,"[21]; Streptococcus pneumoniae, AB17",1 µg/mL
same,MIC,[22],< 0.5 µg/mL
same,MIC,"[23]; Enterococcus faecalis, 29212",2 µg/mL
same,MIC,"[24]; Streptococcus pneumoniae, AB16",1 µg/mL
same,MIC,[25]; [48],< 0.5 µg/mL
same,MIC,"[26]; Streptococcus pyogenes, 20361",1 µg/mL
same,MIC,"[27]; Streptococcus pneumoniae, AB22",1 µg/mL
same,MIC,"[28]; Staphylococcus aureus, MRSA",1 µg/mL
same,MIC,"[29]; Serratia marcescens, 12999",> 16 µg/mL
same,MIC,"[30]; Staphylococcus aureus, MRSA",1 µg/mL
same,MIC,"[31]; Streptococcus pneumoniae, AB29",1 µg/mL
